For 11 compounds, EC50 results are on record in US12454529B2, “Piperazine cyclic ureas” (SIRONAX LTD., priority 2020, dated 2025).

Structures are written as SMILES.

In the first test the test system is HT-29 cells. The experiment in a line: HT-29 cell necrosis/necroptosis inhibition (TNF-α + SMAC mimetic + zVAD-FMK; CellTiter-Glo cell viability). Type of test: cell-based. Conditions: Homo sapiens; HT-29 cells, TNF-α 10 ng/ml + SMAC mimetic 6 μM + zVAD-FMK 10 μM, 20 hours; geometric mean, 10 points in duplicate; read-out: EC50 (Cell activity; Necrosis/Necroptosis Inhibitory Activity, Compounds 1-142). Summed up:
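Necroptosis was driven by TNF-α 10 ng/ml plus SMAC mimetic 6 μM and zVAD-FMK 10 μM in serum-free medium, with compounds as a 10-point threefold titration. After 20 h at 37 °C, ATP-based luminescence was read; EC50 values are geometric means of duplicate curves.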
(In general: In ATP-based viability assays light output follows the ATP content of the culture.)
A word on the EC50: it is the midpoint of the concentration-response curve. For the compound `Cn1nncc1-c1nc(N2CCN(C(=O)N3N=CC[C@H]3c3cc(F)cc(F)c3)CC2)ncc1F` [Compound 44, (S)-(5-(3,5-difluorophenyl)-4,5-dihydro-1H-pyrazol-1-yl)(4-(5-fluoro-4-(1-methyl-1H-1,2,3-triazol-5-yl)pyrimidin-2-yl)piperazin-1-yl)methanone], the EC50 is 0.1 to 100 nM.
On the same count and under the same terms, for `Cn1nccc1-c1nc(N2CCN(C(=O)N3N=CC[C@H]3c3cc(F)cc(F)c3)CC2)ncc1F` [Compound 28, (S)-(5-(3,5-difluorophenyl)-4,5-dihydro-1H-pyrazol-1-yl)(4-(5-fluoro-4-(1-methyl-1H-pyrazol-5-yl)pyrimidin-2-yl)piperazin-1-yl)methanone] the value was 0.1 to 100 nM; for `Cc1nn(-c2nc(N3CCN(C(=O)N4N=CC[C@H]4c4cc(F)cc(F)c4)CC3)ncc2F)c(=O)n1C` [Compound 95, (S)-2-(2-(4-(5-(3,5-difluorophenyl)-4,5-dihydro-1H-pyrazole-1-carbonyl)piperazin-1-yl)-5-fluoropyrimidin-4-yl)-4,5-dimethyl-2,4-dihydro-3H-1,2,4-triazol-3-one], 0.1 to 100 nM; for `O=C(N1CCN(c2ncc(F)c(-c3n[nH]nc3I)n2)CC1)N1N=CC[C@H]1c1cc(F)cc(F)c1` [Compound 20, (S)-(5-(3,5-difluorophenyl)-4,5-dihydro-1H-pyrazol-1-yl)(4-(5-fluoro-4-(5-iodo-1H-1,2,3-triazol-4-yl)pyrimidin-2-yl)piperazin-1-yl)methanone], 0.1 to 100 nM.
The same measure, in the same setting: for `Cc1nnc(-c2nc(N3CCN(C(=O)N4N=CC[C@H]4c4cc(F)cc(C#N)c4)CC3)ncc2F)s1` [Compound 64, (S)-3-fluoro-5-(1-(4-(5-fluoro-4-(5-methyl-1,3,4-thiadiazol-2-yl)pyrimidin-2-yl)piperazine-1-carbonyl)-4,5-dihydro-1H-pyrazol-5-yl)benzonitrile] the value was 0.1 to 100 nM; for `NC(=O)Cn1ccc(-c2nc(N3CCN(C(=O)N4N=CC[C@H]4c4ccccc4)CC3)ncc2F)n1` [Compound 77], 0.1 to 100 nM.

The test is the same for the next values; noted with them: Homo sapiens; HT-29 cells, TNF-α 10 ng/ml + SMAC mimetic 6 μM + zVAD-FMK 10 μM, 20 hours; geometric mean, 10 points in duplicate; read-out: EC50 (Cell activity; Necrosis/Necroptosis Inhibitory Activity, Compounds 143-323).
As to `Cc1nc(C)n(-c2nc(N3C[C@@H](C)N(C(=O)N4N=CC[C@H]4c4cc(F)cc(C#N)c4)[C@@H](C)C3)ncc2F)n1` [Compound 146, 3-((S)-1-((2S,6R)-4-(4-(3,5-dimethyl-1H-1,2,4-triazol-1-yl)-5-fluoropyrimidin-2-yl)-2,6-dimethylpiperazine-1-carbonyl)-4,5-dihydro-1H-pyrazol-5-yl)-5-fluorobenzonitrile], the half-maximal effective concentration (EC50) lay in the range of 1000 to 10000 nM.
In the case of `Cc1nc(C(F)(F)F)nn1-c1ccnc(N2CCN(C(=O)N3N=CC[C@H]3c3cc(F)cc(C#N)c3)CC2)n1` [Compound 147, (S)-3-fluoro-5-(1-(4-(4-(5-methyl-3-(trifluoromethyl)-1H-1,2,4-triazol-1-yl)pyrimidin-2-yl)piperazine-1-carbonyl)-4,5-dihydro-1H-pyrazol-5-yl)benzonitrile], the half-maximal effective concentration (EC50) was 0.1 to 100 nM.
Same read-out and setting: for `Cc1cnc([C@@H]2CC=NN2C(=O)N2CCN(c3ncc(F)c(-c4nc(C#N)nn4C)n3)CC2)s1` [Compound 151, (S)-5-(5-fluoro-2-(4-(5-(5-methylthiazol-2-yl)-4,5-dihydro-1H-pyrazole-1-carbonyl)piperazin-1-yl)pyrimidin-4-yl)-1-methyl-1H-1,2,4-triazole-3-carbonitrile] the value was 0.1 to 100 nM.
Still for that read-out and setting: for `Cc1nc(C(F)(F)F)nn1-c1nc(N2CCN(C(=O)N3N=CC[C@H]3c3cc(F)cc(F)c3)CC2)ncc1F` [Compound 203, (S)-(5-(3,5-difluorophenyl)-4,5-dihydro-1H-pyrazol-1-yl)(4-(5-fluoro-4-(5-methyl-3-(trifluoromethyl)-1H-1,2,4-triazol-1-yl)pyrimidin-2-yl)piperazin-1-yl)methanone] the value was 0.1 to 100 nM.
As for `CCS(=O)(=O)c1c(C)nn(-c2nc(N3CCN(C(=O)N4N=CC[C@H]4c4cc(F)cc(C#N)c4)CC3)ncc2F)c1C` [Compound 205, (S)-3-(1-(4-(4-(4-(ethylsulfonyl)-3,5-dimethyl-1H-pyrazol-1-yl)-5-fluoropyrimidin-2-yl)piperazine-1-carbonyl)-4,5-dihydro-1H-pyrazol-5-yl)-5-fluorobenzonitrile], the concentration for a half-maximal effect (EC50) lay within 0.1 to 100 nM.
